In patent US9758492B2, “IDO inhibitors” (Bristol-Myers Squibb Company, priority 2013, dated 2017) one finds IC50 data, which are given here for 34 compounds.

One may read the IC50 as the point on the concentration scale where inhibition reaches its midpoint. Higher therefore signals weaker potency in that assay.

This assay has as its target IDO (Homo sapiens, UniProt P14902). The assay is described as follows: LLE_IDO_ABS_DR (IDO assay).

Chain of IDO (P14902 whole entry): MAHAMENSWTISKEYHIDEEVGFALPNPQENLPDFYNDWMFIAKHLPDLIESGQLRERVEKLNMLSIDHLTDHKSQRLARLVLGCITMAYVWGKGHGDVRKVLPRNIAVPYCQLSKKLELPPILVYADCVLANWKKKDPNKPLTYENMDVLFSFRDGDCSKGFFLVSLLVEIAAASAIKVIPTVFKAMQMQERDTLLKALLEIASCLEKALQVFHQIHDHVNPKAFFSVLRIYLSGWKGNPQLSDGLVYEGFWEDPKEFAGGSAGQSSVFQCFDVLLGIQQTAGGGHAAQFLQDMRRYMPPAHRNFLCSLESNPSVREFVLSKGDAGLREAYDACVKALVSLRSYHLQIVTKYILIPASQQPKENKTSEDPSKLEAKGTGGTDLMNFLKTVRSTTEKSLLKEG

Take `O=C(Nc1ccc(OC(F)(F)F)cc1)Nc1cc(-c2ccccc2-c2nnn[nH]2)ccc1N(CCc1ccccc1)CCC(F)(F)F` [Example 331, 1-(4-(phenethyl(3,3,3-trifluoropropyl)amino)-2′-(1H-tetrazol-5-yl)-[1,1′-biphenyl]-3-yl)-3-(4-(trifluoromethoxy)phenyl)urea]: 160 nM corresponded to half-maximal inhibition (IC50).

The compound `Cc1ccc(NC(=O)Nc2cc(C3=C(c4nnn[nH]4)CCC3)ccc2N(CC(C)C)CC(C)C)cc1` [Example 164, 1-(5-(2-(1H-tetrazol-5-yl)cyclopent-1-enyl)-2-(diisobutylamino)phenyl)-3-p-tolylurea] displayed an IC50 of 5.4 nM.

`Cc1ccc(NC(=O)Nc2cc(-c3ccccc3NS(=O)(=O)CC(F)(F)F)ccc2N(CC(C)C)CC(C)C)cc1` [Example 84, N-(4′-(diisobutylamino)-3′-(3-p-tolylureido)biphenyl-2-yl)-2,2,2-trifluoroethane-sulfonamide] came in with an IC50 of 2110 nM.

The compound `Cc1ccc(NC(=O)Nc2cc(-c3ccccc3-c3nnn[nH]3)c(F)cc2N(CC(C)C)C2CCCCC2)cc1` [Example 227, 1-(4-(cyclohexyl(isobutyl)ami-no)-6-fluoro-2′-(1H-tetrazol-5-yl)biphenyl-3-yl)-3-p-tolylurea] came in with an IC50 of 2.91 nM.

With `Cc1ccc(NC(=O)Nc2cc(-c3ccccc3C(=O)NS(=O)(=O)C(F)(F)F)ccc2N(CC(C)C)CC(C)C)cc1` [Example 234], the midpoint of inhibition, the IC50, lay at 9370 nM.

With `Cc1ccc(NC(=O)Nc2cc(-c3c(C(=O)O)cccc3N(C)C)ccc2N(CC(C)C)CC(C)C)cc1` [Example 101, 4′-(diisobutylamino)-6-(dimethylamino)-3′-(3-p-tolylureido) biphenyl-2-carboxylic acid], the IC50 was determined as 10 nM.

The compound `CCN(CC(C)(C)C)c1ccc(-c2ccccc2C(=O)O)cc1NC(=O)Nc1ccccc1F` [Example 108, 4′-(ethyl(neopentyl)amino)-3′-(3-(2-fluorophenyl)ureido) biphenyl-2-carboxylic acid] returned an IC50 of 250 nM.

`Cc1ccc(NC(=O)Nc2cc(-c3cc(F)ccc3C(=O)O)ccc2N(Cc2ccccc2)CC(F)F)cc1` [Example 21, 4′-(Benzyl(2,2-difluoroethyl)amino)-5-fluoro-3′-(3-(p-tolyl)ureido)-[1,1′-biphenyl]-2-carboxylic acid] registered an IC50 of 150 nM. Compared with the last compound, the IC50 is about 1.7-fold lower.

In turn, `Cc1cc(NC(=O)Nc2cc(-c3ccccc3-c3nnn[nH]3)ccc2N2CCC(c3ccccc3)C2)on1` (racemic) [Example 372, (±)-1-(3-Methylisoxazol-5-yl)-3-(4-(3-phenylpyrrolidin-1-yl)-2′-(1H-tetrazol-5-yl)-[1,1′-biphenyl]-3-yl)urea] gave an IC50 of 1940 nM.

Compound `Cc1ccc(NC(=O)Nc2cc(-c3ccccc3C(=O)NS(C)(=O)=O)ccc2N(CC(C)C)CC(C)C)cc1` [Example 232, 4′-(Diisobutylamino)-N-(methylsulfonyl)-3′-(3-(p-tolyl)ureido)-[1,1′-biphenyl]-2-carboxamide] returned an IC50 of 660 nM.

In turn, `Cc1ccc(NC(=O)Nc2cc(-c3ccccc3C(=O)C(C#N)S(C)(=O)=O)ccc2N(CC(C)C)CC(C)C)cc1` (stereo not shown) [Example 96, 1-(2′-(2-cyano-2-(methylsulfonyl)acetyl)-4-(diisobutylamino)biphenyl-3-yl)-3-p-tolylurea] returned an IC50 of 1180 nM.

As for `C#CCOc1cccc(NC(=O)Nc2cc(-c3ccccc3-c3nnn[nH]3)ccc2N(CC(C)C)CC(C)C)c1` [Example 242, 1-(4-(diisobutylamino)-2′-(1H-tetrazol-5-yl)-[1,1′-biphenyl]-3-yl)-3-(3-(prop-2-yn-1-yloxy)phenyl)urea], the IC50 was 4.72 nM.

For the compound `CC(C)CN(CC(C)C)c1ccc(-c2ccccc2-c2nnn[nH]2)cc1NC(=O)Nc1ccc(F)c(Cl)c1` [Example 286, 1-(3-chloro-4-fluorophenyl)-3-(4-(diisobutylamino)-2′-(1H-tetrazol-5-yl)biphenyl-3-yl)urea], half-maximal inhibition (IC50) was put at 110 nM.

With `Cc1ccc(NC(=O)Nc2cc(-c3cnccc3C(=O)O)ccc2N(CC(C)C)CC(C)C)cc1` [Example 151, 3-(4-(diisobutylamino)-3-(3-p-tolylureido)phenyl) isonicotinic acid], the IC50 came out at 4620 nM.

As to `CC(C)CN(CCC(C)C(F)(F)F)c1ccc(-c2cc(F)ccc2C(=O)O)cc1NC(=O)Nc1ccccc1F` (stereo not shown) [Example 204, 5-fluoro-3′-(3-(2-fluorophenyl)ureido)-4′-(isobutyl(4,4,4-trifluoro-3-methylbutyl)amino)-[1,1′-biphenyl]-2-carboxylic acid], the IC50 worked out at 5.26 nM.

The compound `CC(C)CN(c1ccc(-c2cc(F)ccc2C(=O)O)cc1NC(=O)Nc1ccccc1F)C(C)C` [Example 155, 5-fluoro-3′-(3-(2-fluorophenyl)ureido)-4′-(isobutyl(isopropyl)amino)biphenyl-2-carboxylic acid] came in with an IC50 of 40 nM.

In turn, `CC(C)CN(CC(C)C)c1ccc(-c2ccccc2-c2nnn[nH]2)cc1NC(=O)Nc1ccc(F)c(Br)c1` [Example 258, 1-(3-bromo-4-fluorophenyl)-3-(4-(diisobutylamino)-2′-(1H-tetrazol-5-yl)-[1,1′-biphenyl]-3-yl)urea] yielded an IC50 of 90 nM.

`Cc1ccc(NC(=O)Nc2cc(-c3ccccc3NS(C)(=O)=O)ccc2N(CC(C)C)CC(C)C)cc1` [Example 74, N-(4′-(diisobutylamino)-3′-(3-p-tolylureido)biphenyl-2-yl) methanesulfonamide] showed an IC50 of 5770 nM.

As to `CC(C)CN(CC(C)C)c1ccc(-c2ccccc2-c2nnn[nH]2)cc1NC(=O)Nc1ccc2ncsc2c1` [Example 143, 1-(benzo[d]thiazol-6-yl)-3-(4-(diisobutylamino)-2′-(1H-tetrazol-5-yl)biphenyl-3-yl)urea], the IC50 was determined as 150 nM. Compared with the last compound, the IC50 is about 38-fold lower.

With `O=C(Nc1ccc(OC(F)(F)F)cc1)Nc1cc(-c2ccccc2-c2nnn[nH]2)ccc1N(CCC(F)(F)F)Cc1ccc(C(F)(F)F)cc1` [Example 327, 1-(2′-(1H-tetrazol-5-yl)-4-((4-(trifluoromethyl)benzyl)(3,3,3-trifluoropropyl)amino)-[1,1′-biphenyl]-3-yl)-3-(4-(trifluoromethoxy)phenyl)urea], the IC50 was 260 nM.

`CC(C)CN(CC(C)C)c1ccc(-c2ccccc2-c2nnn[nH]2)cc1NC(=O)Nc1c(F)cc(F)cc1F` [Example 282, 1-(4-(diisobutylamino)-2′-(1H-tetrazol-5-yl)-[1,1′-biphenyl]-3-yl)-3-(2,4,6-trifluorophenyl)urea] showed an IC50 of 8.2 nM.

Take `CC(C)CNC(=O)Nc1cc(-c2ccccc2-c2nnn[nH]2)ccc1N(CC(C)C)CC(C)C` [Example 245, 1-(4-(diisobutylamino)-2′-(1H-tetrazol-5-yl)-[1,1′-biphenyl]-3-yl)-3-isobutylurea]: the IC50 stood at 180 nM.

The compound `Cc1ccc(NC(=O)Nc2cc(-c3ccccc3-c3nnn[nH]3)ccc2N(Cc2ccccc2)CC(F)F)cc1` [Example 22, 1-(4-(Benzyl(2,2-difluoroethyl)amino)-2′-(1H-tetrazol-5-yl)-[1,1′-biphenyl]-3-yl)-3-(p-tolyl)urea] registered an IC50 of 30 nM.

With `Cc1ccc(NC(=O)Nc2cc(-c3ccccc3C(=O)O)c(F)cc2N(CC(C)C)C2CCCCC2)cc1` [Example 225], it took 2.52 nM to reach half-maximal inhibition (IC50).

In turn, `CCCN(Cc1ccccc1)c1ccc(-c2ccccc2C(=O)O)cc1NC(=O)Nc1ccc(C)cc1` [Example 187, 4′-(benzyl(propyl)amino)-3′-(3-(p-tolyl)ureido)-[1,1′-biphenyl]-2-carboxylic acid] came in with an IC50 of 20 nM.

Take `Cc1ccc(NC(=O)Nc2cc(-c3ccc(F)cc3C(=O)O)ccc2N(CC(C)C)CC(C)C)cc1` [Example 70, 4′-(diisobutylamino)-4-fluoro-3′-(3-p-tolylureido)biphenyl-2-carboxylic acid]: half-maximal inhibition (IC50) required 110 nM.

The compound `Cc1ccc(NC(=O)Nc2cc(-c3ccccc3-c3nnn[nH]3)ccc2Nc2ccccc2C(C)(C)C)cc1` [Example 208, 1-(4-((2-(tert-butyl)phenyl)amino)-2′-(1H-tetrazol-5-yl)-[1,1′-biphenyl]-3-yl)-3-(p-tolyl)urea] showed an IC50 of 50 nM.

`O=C(Nc1cc(-c2ccccc2-c2nnn[nH]2)ccc1N(CCC(F)(F)F)Cc1ccc(F)cc1C(F)(F)F)Nc1ccccc1C(F)(F)F` [Example 338, 1-(4-((4-fluoro-2-(trifluoromethyl)benzyl)(3,3,3-trifluoropropyl)amino)-2′-(1H-tetrazol-5-yl)-[1,1′-biphenyl]-3-yl)-3-(2-(trifluoromethyl)phenyl)urea] had an IC50 of 490 nM.

Regarding `Cc1ccc(NC(=O)Nc2cc(-c3ccccc3-c3nnn[nH]3)ccc2N(CC2CC2)C2CCCCC2)cc1` [Example 82, 1-(4-(cyclohexyl (cyclopropylmethyl)amino)-2′-(1H-tetrazol-5-yl)biphenyl-3-yl)-3-p-tolylurea], the IC50 came to 3.8 nM.

`O=C(Nc1cc(-c2ccccc2-c2nnn[nH]2)ccc1N(CCC(F)(F)F)Cc1ccccn1)Nc1ccccc1C(F)(F)F` [Example 345, 1-(4-((pyridin-2-ylmethyl)(3,3,3-trifluoropropyl)amino)-2′-(1H-tetrazol-5-yl)-[1,1′-biphenyl]-3-yl)-3-(2-(trifluoromethyl)phenyl)urea] had an IC50 of 820 nM.

`O=C(Nc1ccc(OC(F)(F)F)cc1)Nc1cc(-c2ccccc2-c2nnn[nH]2)ccc1N1CCC(c2ccccc2)C1` (racemic) [Example 369, (±)-1-(4-(3-Phenylpyrrolidin-1-yl)-2′-(1H-tetrazol-5-yl)-[1,1′-biphenyl]-3-yl)-3-(4-(trifluoromethoxy)phenyl)urea] returned an IC50 of 520 nM.

Compound `CCCCN(c1ccc(-c2cc(F)ccc2C(=O)O)cc1NC(=O)Nc1ccc(C)cc1)C1CCCCC1` [Example 178, 4′-(butyl(cyclohexyl)amino)-5-fluoro-3′-(3-(p-tolyl)ureido)-[1,1′-biphenyl]-2-carboxylic acid] gave an IC50 of 5.49 nM.

`CCCN(c1ccc(-c2ccccc2-c2nnn[nH]2)cc1NC(=O)Nc1ccccc1F)C1CCCC1` [Example 170, 1-(4-(cyclopentyl(propyl)amino)-2′-(1H-tetrazol-5-yl)biphenyl-3-yl)-3-(2-fluorophenyl)urea] yielded an IC50 of 5.68 nM. The IC50 values of the last two compounds are within 1.5-fold of each other.

`COc1ccc(-c2ccc(N(CC(C)C)CC(C)C)c(NC(=O)Nc3ccc(C)cc3)c2)c(-c2nnn[nH]2)c1` [Example 117, 1-(4-(diisobutylamino)-4′-methoxy-2′-(1H-tetrazol-5-yl)biphenyl-3-yl)-3-p-tolylurea] displayed an IC50 of 10 nM.
